Calls of active or inactive are those of the source. The rule behind the calls is not given here.
Tested on: CCRIS mutagenicity, Ames/micronucleus/aberration tests
Experiment: CCRIS mutagenicity studies
[1] = Test System: AMES SALMONELLA TYPHIMURIUM, Strain/Indicator: TA98, Metabolic Activation: NONE, Method: PREINCUBATION
[2] = Test System: AMES SALMONELLA TYPHIMURIUM, Strain/Indicator: TA100, Metabolic Activation: NONE, Method: PREINCUBATION
[3] = Test System: AMES SALMONELLA TYPHIMURIUM, Strain/Indicator: TA1535, Metabolic Activation: NONE, Method: PREINCUBATION
[4] = Test System: AMES SALMONELLA TYPHIMURIUM, Strain/Indicator: TA1537, Metabolic Activation: NONE, Method: PREINCUBATION
[5] = Test System: AMES SALMONELLA TYPHIMURIUM, Strain/Indicator: TA100, Metabolic Activation: NONE, Method: STANDARD PLATE
[6] = Test System: AMES SALMONELLA TYPHIMURIUM, Strain/Indicator: TA98, Metabolic Activation: NONE, Method: STANDARD PLATE
[7] = Test System: AMES SALMONELLA TYPHIMURIUM, Strain/Indicator: TA98, Metabolic Activation: RAT, LIVER, S-9, AROCLOR 1254, Method: STANDARD PLATE
[8] = Test System: AMES SALMONELLA TYPHIMURIUM, Strain/Indicator: TA100, Metabolic Activation: RAT, LIVER, S-9, AROCLOR 1254, Method: STANDARD PLATE
[9] = Test System: AMES SALMONELLA TYPHIMURIUM, Strain/Indicator: TA1537, Metabolic Activation: NONE, Method: STANDARD PLATE

What does the source list for CO/N=C(\C(=O)N[C@@H]1C(=O)N2C(C(=O)OCOC(=O)C(C)(C)C)=C(/C=C\c3scnc3C)CS[C@H]12)c1csc(N)n1?
mutagenic call [1]: inactive; negative; mutagenic call (Test System: AMES SALMONELLA TYPHIMURIUM, Strain/Indicator: TA98, Metabolic Activation: RAT, LIVER, S-9, PHENOBARBITAL AND 5,6-BENZOFLAVONE, Method: PREINCUBATION): inactive; negative; mutagenic call [2]: inactive; negative; mutagenic call (Test System: AMES SALMONELLA TYPHIMURIUM, Strain/Indicator: TA100, Metabolic Activation: RAT, LIVER, S-9, PHENOBARBITAL AND 5,6-BENZOFLAVONE, Method: PREINCUBATION): inactive; negative; mutagenic call [3]: inactive; negative; mutagenic call (Test System: AMES SALMONELLA TYPHIMURIUM, Strain/Indicator: TA1535, Metabolic Activation: RAT, LIVER, S-9, PHENOBARBITAL AND 5,6-BENZOFLAVONE, Method: PREINCUBATION): inactive; negative; mutagenic call [4]: inactive; negative; mutagenic call (Test System: AMES SALMONELLA TYPHIMURIUM, Strain/Indicator: TA1537, Metabolic Activation: RAT, LIVER, S-9, PHENOBARBITAL AND 5,6-BENZOFLAVONE, Method: PREINCUBATION): inactive; negative; mutagenic call (Test System: AMES SALMONELLA TYPHIMURIUM, Strain/Indicator: TA1538, Metabolic Activation: NONE, Method: PREINCUBATION): inactive; negative; mutagenic call (Test System: AMES SALMONELLA TYPHIMURIUM, Strain/Indicator: TA1538, Metabolic Activation: RAT, LIVER, S-9, PHENOBARBITAL AND 5,6-BENZOFLAVONE, Method: PREINCUBATION): inactive; negative; mutagenic call (Test System: E. COLI, Strain/Indicator: WP2 UVRA, Metabolic Activation: NONE, Method: PREINCUBATION): inactive; negative; mutagenic call (Test System: E. COLI, Strain/Indicator: WP2 UVRA, Metabolic Activation: RAT, LIVER, S-9, PHENOBARBITAL AND 5,6-BENZOFLAVONE, Method: PREINCUBATION): inactive; negative; mutagenic call (Test System: MOUSE LYMPHOMA, Strain/Indicator: L5178Y (TK+/TK-), Metabolic Activation: NONE): inactive; negative; mutagenic call (Test System: MOUSE LYMPHOMA, Strain/Indicator: L5178Y (TK+/TK-), Metabolic Activation: RAT, LIVER, S-9, PHENOBARBITAL AND 5,6-BENZOFLAVONE): inactive; negative; mutagenic call (Test System: UDS RAT STOMACH MUCOSA CELLS, Strain/Indicator: THY INCORP, Metabolic Activation: NONE, Method: IN VIVO-IN VITRO): inactive; negative

How did the mutagenic call (Test System: MOUSE LYMPHOMA, Strain/Indicator: L5178Y (TK+/TK-), Metabolic Activation: NONE, Method: SUSPENSION/PLATE) turn out when C/C([O-])=C(/N=Nc1cc(S(N)(=O)=O)ccc1[O-])C(=O)Nc1ccccc1.C/C([O-])=C(\N=Nc1cc(S(N)(=O)=O)ccc1[O-])C(=O)Nc1ccccc1.[Co+2] was run?
Its mutagenic call is “inactive; negative. reevaluation of results: negative”.

And the mutagenic call (Test System: MOUSE LYMPHOMA, Strain/Indicator: L5178Y (TK+/TK-), Metabolic Activation: RAT, LIVER, S-9, AROCLOR 1254, Method: SUSPENSION/PLATE)?
The mutagenic call was “inactive; negative. reevaluation of results: negative”.

Which mutagenic call (Test System: CHINESE HAMSTER V-79, Strain/Indicator: V-79/8-AZAGUANINE, Metabolic Activation: RAT, LIVER, S-9, AROCLOR 1254, Method: STANDARD PLATE) does the source give for Cc1ccc2cc3c(ccc4ccccc43)c3c2c1C(=O)C3 here?
The mutagenic call was “active; positive”.

For COc1nsc2c(OCC3CO3)cccc12 (configuration not stated), which mutagenic call [5] is on record?
The mutagenic call was “active; positive”.

How did the mutagenic call [6] turn out when C=Cc1ccc([N+](=O)[O-])cc1 was run?
Its mutagenic call is “active; positive”.

What about the mutagenic call [7] of the same compound?
Its mutagenic call is “active; positive”.

What about the mutagenic call [5] of the same compound?
Its mutagenic call is “active; positive”.

What about the mutagenic call [8] of the same compound?
The mutagenic call was “active; positive”.

How did the mutagenic call (Test System: AMES SALMONELLA TYPHIMURIUM, Strain/Indicator: TA100, Metabolic Activation: NONE, Method: LIQUID SUSPENSION) turn out when C=C(C)C(C)Cl (configuration not stated) was run?
The mutagenic call was “active; positive”.

Which results are given for Nc1nc2n[nH]nc2c(=O)[nH]1?
mutagenic call [6]: inactive; negative; mutagenic call (Test System: AMES SALMONELLA TYPHIMURIUM, Strain/Indicator: TA98, Metabolic Activation: S-9, Method: STANDARD PLATE): inactive; negative; mutagenic call [5]: inactive; negative; mutagenic call (Test System: AMES SALMONELLA TYPHIMURIUM, Strain/Indicator: TA100, Metabolic Activation: S-9, Method: STANDARD PLATE): inactive; negative; mutagenic call (Test System: AMES SALMONELLA TYPHIMURIUM, Strain/Indicator: TA102, Metabolic Activation: NONE, Method: STANDARD PLATE): inactive; negative; mutagenic call [9]: inactive; negative; mutagenic call (Test System: AMES SALMONELLA TYPHIMURIUM, Strain/Indicator: TA1537, Metabolic Activation: S-9, Method: STANDARD PLATE): inactive; negative; mutagenic call (Test System: E. COLI, Strain/Indicator: WP2 (HCR), Metabolic Activation: NONE, Method: STANDARD PLATE): inactive; negative; mutagenic call (Test System: E. COLI, Strain/Indicator: WP2 (HCR), Metabolic Activation: S-9, Method: STANDARD PLATE): inactive; negative

Which results are given for Cc1cnc2ccccc2n1?
mutagenic call [1]: inactive; negative; mutagenic call (Test System: AMES SALMONELLA TYPHIMURIUM, Strain/Indicator: TA98, Metabolic Activation: RAT, LIVER, S-9, AROCLOR 1254, Method: PREINCUBATION): inactive; negative; mutagenic call [2]: inactive; negative; mutagenic call (Test System: AMES SALMONELLA TYPHIMURIUM, Strain/Indicator: TA100, Metabolic Activation: RAT, LIVER, S-9, AROCLOR 1254, Method: PREINCUBATION): inactive; negative; mutagenic call (Test System: AMES SALMONELLA TYPHIMURIUM, Strain/Indicator: TA102, Metabolic Activation: NONE, Method: PREINCUBATION): inactive; negative; mutagenic call (Test System: AMES SALMONELLA TYPHIMURIUM, Strain/Indicator: TA102, Metabolic Activation: RAT, LIVER, S-9, AROCLOR 1254, Method: PREINCUBATION): inactive; negative

How did the mutagenic call [5] turn out when OCc1ccc(F)cc1 was run?
Its mutagenic call is “inactive; negative”.

CN(CCO)C(=O)Nc1ccc(Cl)c(Cl)c1 was tested. Which mutagenic call [6] did it give?
The mutagenic call was “inactive; negative”.

What about the mutagenic call [7] of the same compound?
The mutagenic call was “inactive; negative”.

And the mutagenic call [5]?
The mutagenic call was “inactive; negative”.

And the mutagenic call [8]?
The mutagenic call was “inactive; negative”.

And the mutagenic call (Test System: AMES SALMONELLA TYPHIMURIUM, Strain/Indicator: TA1535, Metabolic Activation: NONE, Method: STANDARD PLATE)?
The mutagenic call was “inactive; negative”.

And the mutagenic call (Test System: AMES SALMONELLA TYPHIMURIUM, Strain/Indicator: TA1535, Metabolic Activation: RAT, LIVER, S-9, AROCLOR 1254, Method: STANDARD PLATE)?
The mutagenic call was “inactive; negative”.

And the mutagenic call [9]?
The mutagenic call was “inactive; negative”.

What about the mutagenic call (Test System: AMES SALMONELLA TYPHIMURIUM, Strain/Indicator: TA1537, Metabolic Activation: RAT, LIVER, S-9, AROCLOR 1254, Method: STANDARD PLATE) of the same compound?
The mutagenic call was “inactive; negative”.

And the mutagenic call (Test System: AMES SALMONELLA TYPHIMURIUM, Strain/Indicator: TA1538, Metabolic Activation: NONE, Method: STANDARD PLATE)?
Its mutagenic call is “inactive; negative”.

What about the mutagenic call (Test System: AMES SALMONELLA TYPHIMURIUM, Strain/Indicator: TA1538, Metabolic Activation: RAT, LIVER, S-9, AROCLOR 1254, Method: STANDARD PLATE) of the same compound?
Its mutagenic call is “inactive; negative”.

For COc1ccc(C(=O)c2ccccc2O)c(O)c1, which mutagenic call (Test System: AMES SALMONELLA TYPHIMURIUM, Strain/Indicator: TA98, Metabolic Activation: HAMSTER, LIVER, S-9, AROCLOR 1254 (10%), Method: PREINCUBATION) is on record?
Its mutagenic call is “inactive; negative”.

And the mutagenic call [1]?
The mutagenic call was “inactive; negative”.

What about the mutagenic call (Test System: AMES SALMONELLA TYPHIMURIUM, Strain/Indicator: TA98, Metabolic Activation: RAT, LIVER, S-9, AROCLOR 1254 (10%), Method: PREINCUBATION) of the same compound?
The mutagenic call was “inactive; negative”.

What about the mutagenic call (Test System: AMES SALMONELLA TYPHIMURIUM, Strain/Indicator: TA100, Metabolic Activation: HAMSTER, LIVER, S-9, AROCLOR 1254 (10%), Method: PREINCUBATION) of the same compound?
The mutagenic call was “inactive; negative”.

And the mutagenic call [2]?
Its mutagenic call is “inactive; negative”.

And the mutagenic call (Test System: AMES SALMONELLA TYPHIMURIUM, Strain/Indicator: TA100, Metabolic Activation: RAT, LIVER, S-9, AROCLOR 1254 (10%), Method: PREINCUBATION)?
The mutagenic call was “inactive; negative”.

What about the mutagenic call (Test System: AMES SALMONELLA TYPHIMURIUM, Strain/Indicator: TA1535, Metabolic Activation: HAMSTER, LIVER, S-9, AROCLOR 1254 (10%), Method: PREINCUBATION) of the same compound?
Its mutagenic call is “inactive; negative”.

And the mutagenic call [3]?
The mutagenic call was “inactive; negative”.

And the mutagenic call (Test System: AMES SALMONELLA TYPHIMURIUM, Strain/Indicator: TA1535, Metabolic Activation: RAT, LIVER, S-9, AROCLOR 1254 (10%), Method: PREINCUBATION)?
Its mutagenic call is “inactive; negative”.

And the mutagenic call (Test System: AMES SALMONELLA TYPHIMURIUM, Strain/Indicator: TA1537, Metabolic Activation: HAMSTER, LIVER, S-9, AROCLOR 1254 (10%), Method: PREINCUBATION)?
Its mutagenic call is “active; positive”.

What about the mutagenic call [4] of the same compound?
Its mutagenic call is “inactive; negative”.

And the mutagenic call (Test System: AMES SALMONELLA TYPHIMURIUM, Strain/Indicator: TA1537, Metabolic Activation: RAT, LIVER, S-9, AROCLOR 1254 (10%), Method: PREINCUBATION)?
Its mutagenic call is “active; positive”.

From PubChem BioAssay AID1259407 (Chemical Carcinogenesis Research Information System (CCRIS), 2018)
